Experiments:
Test in all cases: L-alanine-aminopeptidase activity on gelled medium, Example 8
Assay type in all cases: cell-based
Set-up in all cases: key to growth: ++ means good growth; + means moderate growth; +/− means poor growth; NG means no growth
[1] = tested on: Serratia marcescens (NCTC 10211)
Experimental: (§1) A gelled medium comprising these three substrates is prepared as follows: 30 mg of each substrate are dissolved (heating) in 10 ml of sterile distilled water. Ten ml of this solution are then added to 90 ml of Columbia agar kept molten at 50° C.
(§2) Various strains of microorganisms derived from the NCTC collection (National Collection of Type Cultures, Colindale, UK) were seeded onto the media thus obtained according to multipoint inoculation: for each strain, a drop of 10 μl of a suspension at 0.5 McFarland is deposited onto each of the culture media.
(§3) The colonies formed were examined visually after incubation for 24 h and 48 h. The color and the growth of these colonies were noted.

[2] = tested on: Salmonella typhimurium (NCTC 74)
Experimental: as §1, §2, §3

[3] = tested on: Burkholderia cepacia (NCTC 10743)
Experimental: as §1, §2, §3

[4] = tested on: Shigella sonnei (NCTC 9774)
Experimental: as §1, §2, §3

[5] = tested on: Staphylococcus aureus (NCTC 11939)
Experimental: as §1, §2, §3

[6] = tested on: Staphylococcus aureus (NCTC 6571)
Experimental: as §1, §2, §3

[7] = tested on: Enterococcus faecium (NCTC 7171)
Experimental: as §1, §2, §3

[8] = tested on: Klebsiella pneumoniae (NCTC 10896)
Experimental: as §1, §2, §3

[9] = tested on: Pseudomonas aeruginosa (NCTC 10662)
Experimental: as §1, §2, §3

[10] = tested on: Enterococcus faecalis (NCTC 12697)
Experimental: as §1, §2, §3

[11] = tested on: Enterococcus faecalis (NCTC 755)
Experimental: as §1, §2, §3

[12] = tested on: Listeria monocytogenes (NCTC 11994)
Experimental: as §1, §2, §3

[13] = tested on: Enterobacter cloacae (NCTC 11936)
Experimental: as §1, §2, §3

[14] = tested on: E. coli O157 (NCTC 12079)
Experimental: as §1, §2, §3

[15] = tested on: Salmonella poona (NCTC 4840)
Experimental: as §1, §2, §3

C[C@H](N)C(=O)N[C@@H](C)C(=O)N[C@@H](C)C(=O)Nc1ccc(-c2c3ccccc3[n+](C)c3ccccc23)cc1.[Cl-] [L-Ala-L-Ala-L-Ala-4-AP-10-MA]
++: growth ([1]; 24 h) | growth ([1]; 48 h) | growth ([2]; 24 h) | growth ([2]; 48 h) | growth ([3]; 24 h) | growth ([3]; 48 h) | growth ([4]; 24 h) | growth ([4]; 48 h) | growth ([5]; 24 h) | growth ([5]; 48 h) | growth ([6]; 24 h) | growth ([6]; 48 h) | growth ([7]; 24 h) | growth ([7]; 48 h) | growth ([8]; 24 h) | growth ([8]; 48 h) | growth ([9]; 24 h) | growth ([9]; 48 h) | growth ([10]; 24 h) | growth ([10]; 48 h) | growth ([11]; 24 h) | growth ([11]; 48 h) | growth ([12]; 24 h) | growth ([12]; 48 h) | growth ([13]; 24 h) | growth ([13]; 48 h) | growth ([14]; 24 h) | growth ([14]; 48 h) | growth ([15]; 24 h) | growth ([15]; 48 h)
Orange: color of colonies ([1]; 24 h) | color of colonies ([1]; 48 h) | color of colonies ([2]; 24 h) | color of colonies ([2]; 48 h) | color of colonies ([3]; 24 h) | color of colonies ([3]; 48 h) | color of colonies ([4]; 24 h) | color of colonies ([4]; 48 h) | color of colonies ([8]; 24 h) | color of colonies ([8]; 48 h) | color of colonies ([9]; 24 h) | color of colonies ([9]; 48 h) | color of colonies ([13]; 24 h) | color of colonies ([13]; 48 h) | color of colonies ([14]; 24 h) | color of colonies ([14]; 48 h) | color of colonies ([15]; 24 h) | color of colonies ([15]; 48 h)
Colorless: color of colonies ([5]; 24 h) | color of colonies ([5]; 48 h) | color of colonies ([6]; 24 h) | color of colonies ([6]; 48 h) | color of colonies ([7]; 24 h) | color of colonies ([7]; 48 h) | color of colonies ([10]; 24 h) | color of colonies ([10]; 48 h) | color of colonies ([11]; 24 h) | color of colonies ([11]; 48 h) | color of colonies ([12]; 24 h) | color of colonies ([12]; 48 h)

C[C@H](N)C(=O)N[C@@H](C)C(=O)Nc1ccc(-c2c3ccccc3[n+](C)c3ccccc23)cc1.[Cl-] [L-Ala-L-Ala-4-AP-10-MA]
NG: growth ([6]; 24 h) | growth ([6]; 48 h)
Orange: color of colonies ([1]; 24 h) | color of colonies ([1]; 48 h) | color of colonies ([2]; 24 h) | color of colonies ([2]; 48 h) | color of colonies ([3]; 24 h) | color of colonies ([3]; 48 h) | color of colonies ([4]; 24 h) | color of colonies ([4]; 48 h) | color of colonies ([8]; 24 h) | color of colonies ([8]; 48 h) | color of colonies ([9]; 24 h) | color of colonies ([9]; 48 h) | color of colonies ([13]; 24 h) | color of colonies ([13]; 48 h) | color of colonies ([14]; 24 h) | color of colonies ([14]; 48 h) | color of colonies ([15]; 24 h) | color of colonies ([15]; 48 h)
++: growth ([1]; 24 h) | growth ([1]; 48 h) | growth ([2]; 24 h) | growth ([2]; 48 h) | growth ([3]; 24 h) | growth ([3]; 48 h) | growth ([4]; 24 h) | growth ([4]; 48 h) | growth ([5]; 24 h) | growth ([5]; 48 h) | growth ([7]; 24 h) | growth ([7]; 48 h) | growth ([8]; 24 h) | growth ([8]; 48 h) | growth ([9]; 24 h) | growth ([9]; 48 h) | growth ([10]; 24 h) | growth ([10]; 48 h) | growth ([11]; 24 h) | growth ([11]; 48 h) | growth ([12]; 24 h) | growth ([12]; 48 h) | growth ([13]; 24 h) | growth ([13]; 48 h) | growth ([14]; 24 h) | growth ([14]; 48 h) | growth ([15]; 24 h) | growth ([15]; 48 h)
Colorless: color of colonies ([5]; 24 h) | color of colonies ([5]; 48 h) | color of colonies ([7]; 24 h) | color of colonies ([7]; 48 h) | color of colonies ([10]; 24 h) | color of colonies ([10]; 48 h) | color of colonies ([11]; 24 h) | color of colonies ([11]; 48 h) | color of colonies ([12]; 24 h) | color of colonies ([12]; 48 h)

Source: US7223865B2, “Chromogenic compounds, and use thereof as enzyme substrates” (Biomerieux, priority 2003, dated 2007)
